We go through 1 molecule from US20250288553A1, “Antimicrobial Compositions and Uses for Treatment of Clostridioides difficile, Mycobacterium tuberculosis, and Enterococcus faecalis Infection” (priority 2022, published 2025).

Converted amounts (≈) assume the structure as drawn.

Series [1] in a line: Cytotoxicity assay J774A.1. In kind it is cell-based, murine. Particulars: mouse, J774A.1 macrophage-like cells; J774A.1 cells; read-out: Cytotoxicity (IC50) J774. The protocol:
(§1) To evaluate the selectivity of the top six compounds from the Mtb-lux activity screen (Table 2), cytotoxicity for two different mammalian cell lines was determined. The IC50 was calculated for each compound against J774A.1 and HepG2 cell lines. The selectivity index (SI) for both replicating and dormant conditions was then calculated by taking the IC50 and dividing it by the corresponding MIC (SIR=IC50/MICR, SID=IC50/MICD)^40. Consistent with the experience, the J774 macrophage cell line was more sensitive to all compounds tested. […] Based on these observations, this triacetate protected puupehenone represents a promising candidate for further optimization.
(§2) Cytotoxicity assay: Cytotoxicity was assessed using J774A.1 (murine macrophage-like) and HepG2 (human liver carcinoma) cell lines using 2-fold dilution of the compounds as described previously^42, 43. IC50 values were determined using nonlinear regression fitting of the databy GraphPad Prism. The selectivity Index (SI) was calculated as IC50/MIC.

For series [2], the system named is J774A.1 (murine macrophage-like) cell line. In words: Cytotoxicity assay J774A.1. It counts as cell-based. Here is the method: as §1, §2
Series [3] has as its system M. smegmatis mc^2155 ATCC 700084. In words: MIC against M. smegmatis, REMA. In kind it is cell-based, Mycobacterium smegmatis. Particulars: Mycolicibacterium smegmatis, ATCC700084|MC^2155; determined visually by REMA assay, 24-hour incubation.
Another series is described as follows: Cytotoxicity assay HepG2. Particulars: human.
Series [4] concerns HepG2 (human liver carcinoma) cell line. Put plainly: Cytotoxicity assay HepG2.
Series [5] has as its system Mycobacterium tuberculosis H37Ra ATCC 25177. Put plainly: MIC against Mtb H37Ra, resazurin microtiter assay (REMA). In kind it is cell-based. Particulars: Mycobacterium tuberculosis, 336 h, determined visually by REMA assay, 14-day incubation; read-out: MIC Mtb H37Ra.
For series [6], the system named is Clostridioides difficile NAP1. Put plainly: MIC against C. difficile NAP1, modified broth microdilution. Background: Dilution methods test growth across graded concentrations, often in twofold steps.
Series [7] relates to TcdA production in C. difficile NAP1. In words: Toxin analysis: extracellular TcdA of C. difficile NAP1 at sub-MICs, western blot. It counts as cell-based, Clostridioides difficile. To be noted: NAP1 challenged with 0.5×, 0.25×, 0.125× MIC, 48 h, TcdA normalized to total protein. Here is the method: After a 48 h incubation of NAP1 challenged with several dilutions of each compound, extracellular toxin in spent media derived from triplicate cultures was assessed with western blots using a monoclonal antibody against TcdA. Semi-quantitative analysis of toxin levels was performed via densitometry of TcdA band intensity with respect to total protein as measured by the Bradford assay. Semi-quantitative plots are shown below each representative blot. (a) Toxin production in BHIS (NAP1) and BHIS with 5% DMSO (vehicle). (b) Toxin production from cultures challenged with sub-MICs of fidaxomicin, (c) vancomycin, and (d-j) (+)-puupehenone and selected derivatives. Data points represent the means of adjusted toxin levels derived from triplicate cultures, while error bars represent standard deviations. Statistical analysis was performed in GraphPad Prism 8 using unpaired t-tests. *P<0.05; **P<0.01.
To account for changes in biomass, a semi-quantitative analysis of TcdA production was performed by normalizing the target bands from representative western blots to the amount of total protein in each sample.
Toxin analysis. Toxin production was determined by analyzing the amount of extracellular toxin in the cultures from the ASTs described above. At 48 h, total protein of each culture was determined with the Bradford assay using bovine serum albumin (BSA) as a standard.^53 Cultures were then centrifuged at 5,000×g for 5 minutes to clear the supernatants which were separately collected and frozen at −20° C. After thawing at room temperature, cell-free supernatants were mixed 1:1 with 2× Laemmli buffer and incubated in a sand bath at 100° C. for 5 minutes. Twenty microliters of denatured samples were loaded onto 7.5% Tris-glycine gels and electrophoresed at 200 V for 1 h. After electrophoresis, samples were transferred to polyvinylidene difluoride membranes at 4° C. overnight at 30 V. Membranes were incubated in a blocking buffer (20 mM Tris-HCl, 150 mM NaCl, 0.01 mM ethylenediaminetetraacetic acid, 0.1% Tween 20, 1% BSA, [pH 7.5]) for 1 h at room temperature. TcdA was detected with a monoclonal mouse anti-TcdA antibody (PCG4.1, Novus Biologicals) and a rabbit anti-mouse antibody conjugated with alkaline phosphatase. Blots were visualized with a ChemiDoc XRS+ imaging system (Bio-Rad).
Semi-quantitative analysis of TcdA was performed using Image Lab 6.0 software (Bio-Rad). Briefly, after subtracting background noise, peaks corresponding to the target band were selected with the software's Lane Profile tool. The density of each peak generated a value (arbitrary units) that was normalized to the total protein amount of each respective sample. […] These losses of activity prevented us from performing statistical analysis from multiple experiments, as the sub-MICs were not always the same. Since there were no changes to the methodology described, several other reasons could have accounted for decreased activity, such as compound stability, freeze-thaw, and adherence to plastic. Nevertheless, the toxin results were reproducible, irrespective of the exact sub-MICs on different days.
In general terms: Immunoblotting shows a protein as a band on a membrane.

Series [8] concerns replicating Mtb-lux (Mycobacterium tuberculosis CDC1551 with pMV306hsp+LuxG13). In kind it is cell-based.
The subject of series [9] is dormant Mtb-lux (Mycobacterium tuberculosis CDC1551 with pMV306hsp+LuxG13). In kind it is cell-based.

Broadly, the IC50 is the concentration at which inhibition is half-maximal. Usually MIC stands for the smallest concentration in the dilution series that meets the test's criterion for growth inhibition.

Consider `CO[C@@H]1c2cc(OC(C)=O)c(OC(C)=O)cc2O[C@@]2(C)CC[C@H]3C(C)(C)CCC[C@]3(C)[C@@H]12` [Compound 15], for which the IC50 was 59.1 µM in series [1] and about 107 µM in “Cytotoxicity assay HepG2”. In series [2], the “SI (SID) J774” value worked out at 34.8. Moreover, in series [2], the “SI (SIR) J774” value was 6.6. Besides, the MIC in series [3] was 22.2 µg/mL (≈ 49.9 µM); in series [5] it was 2.7 µg/mL (≈ 6.07 µM); in series [6] (Clostridioides difficile, NAP1, 48 h, read-out: MIC C. difficile, NAP1, modified broth microdilution, 48 h, anaerobic), 2 to 4 µg/mL (≈ 4.5 to 9 µM). The “SI (SID) HepG2” value in series [4] is recorded as 62.9. Besides, the “SI (SIR) HepG2” value in series [4] is given as 12.0. In addition, the “MIC C. difficile” value in series [6] (NAP1, modified broth microdilution, 48 h, anaerobic) was 4.0 µg/mL (≈ 9 µM). Also, the “Effect on TcdA toxin production” value in series [7] is “decreased the amount of toxin in a similar concentration-dependent manner”. Further, the “MICR (Mtb-lux)” value in [8] amounted to 8.9 µg/mL. For the same molecule, the “MICD (Mtb-lux)” value in series [9] is 1.7 µg/mL. Further, the “R/D (MICR/MICD, Mtb-lux)” value in [9] (ratio replicating MIC to dormant MIC) came to 5.2.
